pIC50: −log10 of the molar value. Where two headings read alike, the source gives them in different places.
Experiments:
Assay type in all cases: cell-based
[1] = tested on: human neuroblastoma cell line SH-SY5Y; assay: Inhibition of BSO-induced non-apoptotic cell death (Example B.1); conditions: SH-SY5Y cells, 72 hours
From the text: Inhibition of BSO-Induced Non-Apoptotic Cell Death by Compounds Disclosed Herein
L-Buthionine sulfoximine (BSO) is a well-known glutathione (GSH) depletory, which inhibits gamma-glutamyl-cysteine-synthetase, the enzyme catalyzing the rate-limiting step in GSH biosynthesis. The human neuroblastoma cell line SH-SY5Y is sensitive to BSO-induced intracellular glutathione depletion, which causes high levels of reactive oxygen species (ROS) and cellular stress mimicking cellular conditions following ischemia (cf., e.g., Yamada et al., Neurochem. Int. 59:1003-9 (2011)).
Compounds disclosed herein were evaluated for their ability to promote cell survival upon administration of a lethal dose of BSO to cell-culture medium. Briefly, SH-SY5Y cells (ATCC® CRL-2266™) were propagated in DMEM supplemented with 10% FBS/1% Penicillin-Streptomycin, and then seeded onto 96-well plates at a concentration of 750 cells/well in 100 μL of media, to which BSO (Sigma Aldrich) was added (to a final concentration of 50 μM) together with increasing concentrations of the compound to be tested, and the plates incubated at 37° C./5% CO2 for 72 hours. Compound dilutions (0.5 pM to 100 μM) were prepared from 10 mM stocks dissolved in DMSO and diluted in media. Cells treated with BSO alone were used as negative control and alpha-Tocopherol (Sigma Aldrich) was used as positive control. Compound concentrations were tested in triplicate. After incubation, cell survival was detected using the live/dead cell assay AquaBluer™ (MultiTarget Pharmaceuticals) and quantified using a fluorescence plate reader (excitation filter: 530-560 nm/emission filter: 590 nm) (SpectraMax M4; Molecular Devices). Fluorescence data so obtained was normalised to the percentage of surviving cells and IC50 values calculated using the GraphPad Prism (GraphPad Software, Inc) software package.

[2] = tested on: mouse hippocampal cell line (Ht22); assay: Inhibition of glutamate-induced non-apoptotic cell death (Example B.2); conditions: HT-22, Ht22 cells
From the text: Inhibition of Glutamate-Induced Non-Apoptotic Cell Death by Compounds of the Present Invention
Glutamate toxicity is conferred on cells from the mouse hippocampal cell line (Ht22) by inhibition of the cysteine/glutamate antiporter, System xc-, leading to impaired cysteine uptake and subsequent GSH depletion. This model is frequently used for mimicking glutathione depletion following oxidative stress in stroke, brain trauma and other neurodegenerative diseases and cellular conditions following ischemia (for example: van Leyen et al, J. Neurochem. 92:824-30 (2005)).
Compounds disclosed herein were evaluated for their ability to promote cell survival upon administration of a lethal dose of glutamate (GLU) to the cell-culture medium.
Briefly, Ht22 cells (ATCC) were propagated DMEM supplemented with 10% FBS/1% Penicillin-Streptomycin, and then seeded onto 96-well plates at a concentration of 2,000 cells/well in 100 μL of MEDIA, simultaneously with glutamate (Sigma Aldrich) to a final concentration of 5 mM, together with increasing concentrations of the compound to be tested (0.5 pM to 100 μM), and the plates incubated at 37° C./5% CO2 for 72 hours. Compound dilutions were prepared from 10 mM stocks dissolved in DMSO and diluted in media. Cells treated with glutamate alone were used as negative control and alpha-tocopherol (Sigma Aldrich) was used as positive control. Compound concentrations were tested in triplicate. After incubation, cell survival was detected and quantified as described in Example B.1.

Pfa1 cells = assay: Inhibition of non-apoptotic cell death after tamoxifen-induced GPx4 knockout in a recombinant cell line (Example B.4); conditions: Mus musculus, read-out: Pfa1/TAM IC50
From the text: Inhibition of Non-Apoptotic Cell-Death by Compounds Disclosed Herein Using a Recombinant Cell Line
To combat high intracellular ROS levels, mammalian cells have evolved an intricate network of ROS scavenging in cells, in which the thioredoxin and glutathione (GSH) dependent systems prevail. […] Knockout of GPx4 in neurons causes massive neurodegeneration in cortical, cerebellar and hippocampal neurons underscoring the high relevance of ROS-induced cell death signaling in the brain. Briefly, immortalised fibroblasts from these mice were made to contain tamoxifen-inducible CreERT2, which catalyzes the functional ablation of both copies of GPx4 and resulting in a complete knockout of GPx4, a massive ROS burst, and cell death in cell culture. These cells (Pfa1 cells) were used to characterize compounds of the present invention, whereby tamoxifen (TAM) was given on day 0 along with the compound under test, and 72 hours later cell survival was evaluated using AlamarBlue.

[3] = Cellular toxicity, same assay as Example B.4 without TAM (Example B.5); conditions: mouse; Pfa1 cells without TAM; read-out: TC50 (the source's name)
From the text: Cellular Toxicity of Compounds of the Invention
An estimate of the toxicity for compounds of the invention was obtained by using the same assay as described in Example B.4, but without the addition of TAM. […] Such TC50 values obtained for certain compounds disclosed herein, together with an approximate therapeutic window (estimated by dividing each TC50 by the corresponding IC50 determined from example B.4) are shown in Table 3.

[4] = 50 μM BSO, read-out: SH-SY5Y/BSO IC50
[5] = glutamate-induced cell death, read-out: Ht22/GLU

Compound	pIC50 [1, 4]	pIC50 [2, 5]	pIC50 (Pfa1 cells)	CC50 [3] [nM]	pIC50 ([1]; BSO 50 μM, cell survival (AquaBluer), read-out: SH-SY5Y/BSO (Example B.1) IC50)	pIC50 ([2]; glutamate 5 mM, 72 hours, cell survival, read-out: Ht22/GLU (Example B.2) IC50)
Clc1ccccc1CNC1=Nc2ccccc2NC12CCCCC2 [C-1]	> 6.30	> 6.00	> 6.30	20000 to 50000	–	–
Clc1cccc(CNC2=Nc3ccccc3NC23CCCCC3)c1 [C-2]	> 7.00	> 6.30	> 7.00	10000 to 20000	–	–
Cc1ccc(CNC2=Nc3ccccc3NC23CCCCC3)cc1 [C-12]	> 6.30	> 6.30	> 6.30	50000 to 100000	6.33	6.53
CC(=O)NC1CCC2(CC1)Nc1ccccc1N=C2NCc1cccc(Cl)c1 (stereo not shown) [C-111]	> 6.30	> 6.00	> 6.00	10000 to 20000	–	–
Fc1cc2c(cc1F)NC1(CCCCC1)C(NCc1cccc(Cl)c1)=N2 [C-137]	> 6.70	> 6.70	> 6.70	10000 to 20000	–	–
Clc1cccc(CNC2=Nc3ccccc3NC23CCCCCCC3)c1 [C-206]	> 7.30	> 6.30	> 6.30	5000 to 10000	–	–
c1ccc(CNC2=Nc3ccccc3NC23CCCCCC3)cc1 [C-214]	> 6.30	> 6.00	> 6.30	10000 to 20000	–	–
c1ccc(CNC2=Nc3ccccc3NC23CCCCC3)cc1 [C-215]	> 6.70	> 6.00	> 6.00	20000 to 50000	–	–
Clc1cccc(CNC2=Nc3ccccc3NC23CCCCCC3)c1 [C-216]	> 7.30	> 6.30	> 7.00	10000 to 20000	–	–
Clc1cc2c(cc1Cl)NC1(CCCCC1)C(NCc1ccccc1)=N2 [C-217]	> 7.30	> 6.70	> 7.30	20000 to 50000	–	–
c1ccc(CNC2=Nc3cc4c(cc3NC23CCCCC3)OCCO4)cc1 [C-223]	> 6.30	> 6.00	> 6.70	20000 to 50000	–	–
c1ccc(CCCNC2=Nc3ccccc3NC23CCNCC3)cc1 [N-228]	–	> 7.30	> 7.00	2000 to 5000	–	–
CN1CCC2(CC1)Nc1cc(F)c(F)cc1N=C2NCc1ccccc1 [N-229]	–	> 7.00	> 7.00	5000 to 10000	–	–
Cc1cc2c(cc1C)NC1(CCNCC1)C(NCc1ccc(Cl)c(Cl)c1)=N2 [N-232]	–	> 8.00	> 8.00	1000 to 2000	–	–
Cc1cc2c(cc1C)NC1(CCN(C)CC1)C(NCc1ccccc1)=N2 [N-233]	–	> 7.00	> 6.70	10000 to 20000	–	–
CCCCCCCCN1CCC2(CC1)Nc1ccccc1N=C2NCc1ccccc1 [N-234]	–	> 7.00	> 7.00	5000 to 10000	–	–
Cc1cccc(CNC2=Nc3cc(C)c(C)cc3NC23CCNCC3)c1 [N-235]	–	> 7.30	> 7.30	1000 to 2000	–	–
Clc1cc2c(cc1Cl)NC1(CCCNCC1)C(NCc1ccccc1)=N2 (stereo not shown) [N-236]	–	> 7.30	> 7.00	2000 to 5000	–	–
Fc1cccc(CNC2=Nc3ccccc3NC23CCOCC3)c1 [O/S-5]	–	> 5.30	> 5.70	50000 to 100000	–	–
Cc1cccc(CNC2=Nc3ccccc3NC23CCOCC3)c1 [O/S-11]	–	> 5.30	> 5.70	50000 to 100000	–	–
COc1cccc(CNC2=Nc3ccccc3NC23CCOCC3)c1 [O/S-14]	–	> 5.30	> 5.30	50000 to 100000	–	–
FC(F)(F)c1cccc(CNC2=Nc3ccccc3NC23CCOCC3)c1 [O/S-23]	–	> 6.00	> 6.30	20000 to 50000	–	–
